Among the data in ChEMBL document CHEMBL1909625, “Sesquiterpene lactones from Inula falconeri, a plant endemic to the Himalayas, as potential anti-inflammatory agents” (Eur J Med Chem, 2011) are Activity and IC50 values, retold here.

For data set [1], the system named is RAW264.7. The data set is described as follows: Cytotoxicity against mouse RAW264.7 cells at antiinflammatory IC50 level by MTT assay. The format is cell-based.
The test system of data set [2] is RAW264.7. The data set is described as follows: Antiinflammatory activity in mouse RAW264.7 cells assessed as inhibition of LPS-induced NO production pretreated for 30 mins before LPS challenge measured 24 hrs after LPS challenge by Griess reaction method. In kind it is functional, cell-based.

For `C[C@@H]1C[C@@H]2OC(=O)[C@H](C)[C@H]2[C@H](O)[C@]2(C)C(=O)CC[C@@H]12`, in data set [1], the Activity entry is on record as “Non-toxic”. Also, the IC50 in data set [2] is 20.3 µM.

Regarding `C=C1C[C@H]2OC(=O)C(=C)[C@H]2C[C@@H]2[C@@H]1CC[C@@]2(C)O`, the Activity entry in data set [1] is “Non-toxic”. In addition, the IC50 in data set [2] was determined as 3.94 µM.

In the case of `C=C1C(=O)O[C@H]2CC(=C)[C@H]3CC[C@@](C)(O)[C@@H]3[C@@H](O)[C@H]12`, the Activity entry in data set [1] was “Non-toxic”. In addition, in data set [2], the IC50 was 0.29 µM.

`C=C1C(=O)O[C@H]2C=C(C)[C@H]3CC[C@@](C)(O)[C@@H]3[C@@H](O)[C@H]12`: in data set [1], the Activity entry is “Non-toxic”. Further, the IC50 in data set [2] is 0.13 µM.

As to `C=C(CCCOC(=O)CCCCCCC/C=C\C/C=C\CCCCC)[C@@H]1CC(C)(C)[C@H]1CCC(C)=O`, in data set [1], the Activity result is “Non-toxic”. In addition, the IC50 in data set [2] amounted to 35.5 µM.

For `C=C1C(=O)O[C@@H]2C[C@@]3(C)O[C@@H]3CC[C@@]3(C)O[C@H]3C[C@@H]12`, in data set [1], the Activity entry is recorded as “Non-toxic”. In addition, the IC50 in data set [2] worked out at 6.4 µM.

`C=C1C(=O)O[C@@H]2C[C@@]3(C)[C@@H](O)C[C@@H](OC(=O)C=C(C)C)C(=C)[C@@H]3C[C@H]12`: the Activity entry in data set [1] was “Non-toxic”. Besides, the IC50 in data set [2] turned out to be 4.7 µM.

For the compound `C=C1C(=O)O[C@H]2C[C@@H](C)C(CCC(C)O)=CC[C@H]12` (some centres not stated), the Activity entry in data set [1] is recorded as “Non-toxic”. Further, the IC50 in data set [2] was found to be 0.87 µM.

Consider `C=C1C(=O)O[C@@H]2C[C@H](C)C(CCC(C)OC(C)=O)=CC[C@H]12` (some centres not stated), for which, in data set [1], the Activity result is on record as “Non-toxic”. In data set [2], the IC50 is 0.81 µM.

On to `CC(=O)CCC1=C[C@@H](O)[C@@H]2[C@H](C)C(=O)O[C@@H]2C[C@@H]1C`, for which the Activity result in data set [1] was “Non-toxic”. The IC50 in data set [2] was 21.9 µM.

Take `C=C1C(=O)O[C@@H]2C[C@H](C)[C@]3(CCC(C)O)O[C@@H]3C[C@H]12` (some centres not stated): in data set [1], the Activity entry is “Non-toxic”. Besides, in data set [2], the IC50 was 18.9 µM.

For `C[C@@H]1C[C@@H]2OC(=O)[C@H](C)[C@H]2C[C@]2(C)C(=O)CC[C@@H]12`, the Activity entry in data set [1] is recorded as “Non-toxic”. Besides, the IC50 in data set [2] was 10.8 µM.

On to `C=C1C(=O)O[C@H]2C[C@@H](C)[C@@H]3CC[C@H](O)[C@@]3(C)[C@@H](OC(C)=O)[C@H]12`, for which the Activity result in data set [1] is on record as “Non-toxic”. Further, in data set [2], the half-inhibitory concentration (IC50) was determined as 0.36 µM.

On to `C=C1C(=O)O[C@H]2C[C@@H](C)[C@@H]3CC[C@H](OC(C)=O)[C@@]3(C)[C@@H](O)[C@H]12`, for which the Activity result in data set [1] was “Non-toxic”. For the same compound, the IC50 in data set [2] was 2.05 µM.

As for `C=C1C[C@@H]2OC(=O)[C@H](C)[C@H]2C[C@@H]2[C@@H]1CC[C@@]2(C)O`, in data set [1], the Activity result is recorded as “Non-toxic”. For the same compound, the IC50 in data set [2] is 41.2 µM.

As to `C=C1C[C@@H]2OC(=O)[C@@H](C)[C@H]2C[C@@H]2[C@@H]1CC[C@@]2(C)O`, in data set [1], the Activity entry was “Non-toxic”. The IC50 in data set [2] was found to be 19.5 µM.

Turning to `C=C1C(=O)O[C@H]2C[C@H](C)[C@@H]3CC[C@@]4(C)O[C@@]34C[C@H]12`, the Activity result in data set [1] is “Non-toxic”. Besides, the IC50 in data set [2] worked out at 0.11 µM.

With `C=C1C[C@H]2OC(=O)C(=C)[C@H]2C[C@@H]2[C@@H]1CC[C@]2(C)O`, the Activity result in data set [1] is “Non-toxic”. In addition, the half-maximal inhibitory concentration (IC50) in data set [2] worked out at 7.3 µM.

Consider `C=C1C(=O)O[C@@H]2C[C@@]3(C)[C@@H](O)C[C@@H](OC(=O)C(C)C)C(=C)[C@@H]3C[C@H]12`, for which the Activity entry in data set [1] was “Non-toxic”. The IC50 in data set [2] was found to be 9.12 µM.

For `C=C1C(=O)O[C@@H]2C[C@H](C)C(CCC(C)O)=CC[C@H]12` (some centres not stated), the Activity result in data set [1] is “Non-toxic”. The IC50 in data set [2] stood at 5.48 µM.

As for `CC(=O)CCC1=CC[C@@H]2[C@H](C)C(=O)O[C@@H]2C[C@@H]1C`, the Activity entry in data set [1] is “Non-toxic”. In data set [2], the IC50 turned out to be 64.9 µM.

In the case of `C=C1C(=O)O[C@@H]2C[C@@H](C)[C@@H]3CCC(=O)[C@@]3(C)C[C@H]12`, the Activity result in data set [1] is reported as “Non-toxic”. For the same compound, the concentration for half-maximal inhibition (IC50) in data set [2] came out at 0.4 µM.

For the compound `C=C1C(=O)O[C@H]2C=C(C)[C@@H]3CC[C@](C)(O)[C@@H]3C[C@H]12` [4-EPI-ISOINUVISCOLIDE], the Activity result in data set [1] is “Non-toxic”. In addition, the IC50 in data set [2] stood at 5.94 µM.

`C=C1C(=O)O[C@H]2C[C@@H](C)[C@@H]3CCC(=O)[C@@]3(C)[C@@H](O)[C@H]12` [CARPESIOLIN]: the Activity result in data set [1] was “Non-toxic”. Also, in data set [2], the IC50 turned out to be 2.18 µM.

Regarding `CC(=O)O[C@H]1[C@H]2[C@H](C[C@@H](C)[C@@H]3CCC(=O)[C@]31C)OC(=O)[C@@H]2C` [DIHYDROERGOLIDE], the Activity result in data set [1] is on record as “Non-toxic”. Further, the IC50 in data set [2] amounted to 8.34 µM.

As for `C=C1C(=O)O[C@H]2C[C@@H](C)[C@@H]3CCC(=O)[C@@]3(C)[C@@H](OC(C)=O)[C@H]12` [ERGOLIDE], in data set [1], the Activity entry is “Non-toxic”. Also, the IC50 in data set [2] was found to be 0.07 µM.

Consider `C=C1C(=O)O[C@@H]2C[C@@]3(C)[C@@H](O)C[C@@H](O)C(=C)[C@@H]3C[C@H]12` [GRANILIN], for which, in data set [1], the Activity entry is on record as “Non-toxic”. In addition, in data set [2], the IC50 was determined as 0.11 µM.

For `C=C1C(=O)O[C@@H]2C[C@@]3(C)CCC[C@H](C)C3=C[C@H]12` [HELENINE], the Activity result in data set [1] is reported as “Non-toxic”. Moreover, the IC50 in data set [2] came to 1.17 µM.

For `C=C1C(=O)O[C@H]2CC(=C)[C@H]3CC[C@@](C)(O)[C@@H]3C[C@H]12` [INUVISCOLIDE], the Activity entry in data set [1] was “Non-toxic”. Besides, the IC50 in data set [2] amounted to 9.64 µM.

As to `N=C(N)NN` [PIMAGEDINE], in data set [2], the IC50 worked out at 0.2 µM.

For `C=C1C(=O)O[C@H](CC(C)=O)[C@@H]1CC1=C(C)CCC1=O` [POSTIA SECOGUAIANOLIDE], the Activity result in data set [1] is reported as “Non-toxic”. Also, the half-inhibitory concentration (IC50) in data set [2] is 15.8 µM.

For the compound `C=C1C(=O)O[C@H]2C[C@@H](C)[C@@H]3CC[C@H](O)[C@@]3(C)C[C@H]12` [PSEUDOGUAIANOLIDE], the Activity entry in data set [1] is “Non-toxic”. Also, the IC50 in data set [2] is 9.89 µM.

`C=C1C(=O)O[C@@H]2C[C@H](C)C(CCC(C)=O)=CC[C@H]12` [TOMENTOSIN]: the Activity result in data set [1] is “Non-toxic”. Besides, the IC50 in data set [2] was found to be 7.14 µM.

As for `C=C1C(=O)O[C@H]2C[C@H](C)[C@@H]3CC(=O)C(C)=C3C[C@H]12` [XERANTOLIDE], in data set [1], the Activity result was “Non-toxic”. Further, in data set [2], the IC50 turned out to be 12.9 µM.
